Measured values taken from PubChem BioAssay AID248 (DTP/NCI, 2004).
Values joined by “and” are separate entries in the source; they are usually repeats but may differ in a detail not shown here. Equal entries are not always repeated. Toxic doses and inconclusive results are not listed. No stated cut-off is given here; in the data, active means T/C of 150% or more; inactive means T/C below 125%.

Tested on: L1210 leukemia ip in BDF1 mice, survival T/C
Experiment: NCI In Vivo Anticancer Drug Screen. Data for tumor model L1210 Leukemia (intraperitoneal) in B6D2F1 (BDF1) mice
Settings: endpoint: mean survival time, higher = longer survival
Summary of the method: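 Transplantable tumor model; survival measured in treated vs vehicle control mice. Value = treated/control.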

[1] = dose: 100.0 mg/kg/injection, schedule: Q01DX009 (ip), vehicle: Klucel (hydroxypropylcellulose) (HPC)
[2] = dose: 200.0 mg/kg/injection, schedule: Q01DX009 (ip), vehicle: Klucel (hydroxypropylcellulose) (HPC)
[3] = dose: 400.0 mg/kg/injection, schedule: Q01DX009 (ip), vehicle: Klucel (hydroxypropylcellulose) (HPC)
[4] = dose: 100.0 mg/kg/injection, schedule: Q04DX003 (ip), vehicle: saline with Tween-80
[5] = dose: 200.0 mg/kg/injection, schedule: Q04DX003 (ip), vehicle: saline with Tween-80
[6] = dose: 400.0 mg/kg/injection, schedule: Q04DX003 (ip), vehicle: saline with Tween-80
[7] = dose: 100.0 mg/kg/injection, schedule: Q04DX003 (ip), vehicle: Klucel (hydroxypropylcellulose) (HPC)
[8] = dose: 200.0 mg/kg/injection, schedule: Q04DX003 (ip), vehicle: Klucel (hydroxypropylcellulose) (HPC)
[9] = dose: 400.0 mg/kg/injection, schedule: Q04DX003 (ip), vehicle: Klucel (hydroxypropylcellulose) (HPC)
[10] = dose: 100.0 mg/kg/injection, schedule: Q01DX001 (ip), vehicle: Klucel (hydroxypropylcellulose) (HPC)
[11] = dose: 200.0 mg/kg/injection, schedule: Q01DX001 (ip), vehicle: Klucel (hydroxypropylcellulose) (HPC)
[12] = dose: 400.0 mg/kg/injection, schedule: Q01DX001 (ip), vehicle: Klucel (hydroxypropylcellulose) (HPC)
[13] = dose: 100.0 mg/kg/injection, schedule: Q01DX001 (ip), vehicle: saline
[14] = dose: 200.0 mg/kg/injection, schedule: Q01DX001 (ip), vehicle: saline
[15] = dose: 400.0 mg/kg/injection, schedule: Q01DX001 (ip), vehicle: saline
[16] = dose: 50.0 mg/kg/injection, schedule: Q01DX001 (ip), vehicle: saline

Measured: T/C

C/C=C/CC(C/C=C/C)C1CC[N-]CC1.C/C=C/CC(C/C=C/C)C1CC[N-]CC1.[Cl][Pt+2]([Cl])([Cl])[Cl]
inactive: dose: 3.13 mg/kg/injection, schedule: Q01DX009 (ip), vehicle: other 94 % of control | dose: 6.25 mg/kg/injection, schedule: Q01DX009 (ip), vehicle: other 87 % of control | dose: 12.5 mg/kg/injection, schedule: Q01DX009 (ip), vehicle: other 105 % of control

C=CC[N+](C)(CC=C)CC[N+](C)(CC=C)CC=C
inactive: dose: 50.0 mg/kg/injection, schedule: Q01DX009 (ip), vehicle: water 93 % of control | dose: 100.0 mg/kg/injection, schedule: Q01DX009 (ip), vehicle: water 95 % of control | dose: 100.0 mg/kg/injection, schedule: Q04DX003 (ip), vehicle: water 94 % of control | dose: 200.0 mg/kg/injection, schedule: Q04DX003 (ip), vehicle: water 96 % of control

COc1cc2oc(C)c(C)c2cc1/C=C\[N+](=O)[O-]
inactive: dose: 50.0 mg/kg/injection, schedule: Q04DX002 (ip), vehicle: Klucel (hydroxypropylcellulose) (HPC) 96 % of control | [1] 93 % of control | dose: 100.0 mg/kg/injection, schedule: Q04DX002 (ip), vehicle: Klucel (hydroxypropylcellulose) (HPC) 93 % of control | [2] 98 % of control | dose: 200.0 mg/kg/injection, schedule: Q04DX002 (ip), vehicle: Klucel (hydroxypropylcellulose) (HPC) 96 % of control | [3] 100 % of control

CCS(=O)CCNC(=O)NS(=O)(=O)c1ccc(C)cc1 (stereo not drawn)
inactive: [4] 100 % of control | [5] 101 % of control | [6] 97 % of control

C1C[N+]2(CCO1)CC[N+]1(CCOCC1)CC2
inactive: dose: 100.0 mg/kg/injection, schedule: Q04DX002 (ip), vehicle: saline 104 % of control | dose: 200.0 mg/kg/injection, schedule: Q04DX002 (ip), vehicle: saline 96 % of control | dose: 400.0 mg/kg/injection, schedule: Q04DX002 (ip), vehicle: saline 100 % of control

Cn1cc([N+](=O)[O-])ccc1=O
inactive: [7] 110 % of control | [8] 116 % of control | [9] 121 % of control

COc1ccc(/C=N\NC(=O)CCCCC(=O)N/N=C\c2ccc(OC)cc2)cc1
inactive: [10] 106 % of control | [11] 98 % of control | [12] 91 % of control

CN(C)CC/C=C1\c2ccccc2CCSc2ccccc21
inactive: dose: 25.0 mg/kg/injection, schedule: Q04DX003 (ip), vehicle: Klucel (hydroxypropylcellulose) (HPC) 100 % of control | dose: 50.0 mg/kg/injection, schedule: Q04DX003 (ip), vehicle: Klucel (hydroxypropylcellulose) (HPC) 100 % of control | [7] 98 % of control

CCCCOC(=O)C(C)OC(=O)CCC (stereo not drawn)
inactive: [1] 102 % of control | [7] 99 % of control | [2] 90 % of control | [8] 107 % of control | [3] 102 % of control | [9] 102 % of control

OC(COc1ccccc1)CN1CCN(c2cccc(Cl)c2)CC1 (stereo not drawn)
inactive: [13] 97 % of control | [14] 95 % of control | [15] 92 % of control

O=c1[nH]c2cnn(-c3ccccc3)c2c(=O)n1OS(=O)(=O)c1ccccc1
inactive: dose: 5.0 mg/kg/injection, schedule: Q01DX001 (ip), vehicle: saline 103 % of control | dose: 10.0 mg/kg/injection, schedule: Q01DX001 (ip), vehicle: saline 100 % of control | dose: 20.0 mg/kg/injection, schedule: Q01DX001 (ip), vehicle: saline 100 % of control | dose: 40.0 mg/kg/injection, schedule: Q01DX001 (ip), vehicle: saline 97 % of control | [16] 109 % of control | dose: 80.0 mg/kg/injection, schedule: Q01DX001 (ip), vehicle: saline 97 % of control | [13] 100 % of control | [14] 97 % of control | [15] 103 % of control

C=CCNC(=S)Nc1cccc(O)c1
inactive: [1] 95 % of control | [2] 104 % of control | [3] 107 % of control

Cc1ccc(S(=O)(=O)OCC2OCC(OC(=O)c3ccccc3)C(OC(=O)c3ccccc3)C2OC(=O)c2ccccc2)cc1 (stereo not drawn)
inactive: [4] 93 % of control | [5] 93 % of control | [6] 90 % of control

C/C(Cc1c[nH]c2ccccc12)=N/NC(N)=S
inactive: [16] 100 % of control | [13] 100 % of control

CCCNCC1OC(OC)C2OC(C)(C)OC12 (stereo not drawn)
inactive: dose: 0.78 mg/kg/injection, schedule: Q01DX009 (ip), vehicle: saline 100 % of control | dose: 1.56 mg/kg/injection, schedule: Q01DX009 (ip), vehicle: saline 96 % of control | dose: 3.12 mg/kg/injection, schedule: Q01DX009 (ip), vehicle: saline 98 % of control | dose: 100.0 mg/kg/injection, schedule: Q01DX005 (ip), vehicle: saline 99 % of control | dose: 100.0 mg/kg/injection, schedule: Q01DX009 (ip), vehicle: saline 88 % of control | dose: 200.0 mg/kg/injection, schedule: Q01DX005 (ip), vehicle: saline 106 % of control | dose: 200.0 mg/kg/injection, schedule: Q01DX009 (ip), vehicle: saline 91 % of control

O=C1C(c2ccccc2)=C(c2ccccc2)c2c1c(-c1ccccc1)c(-c1ccccc1)c(-c1ccccc1)c2-c1ccccc1
inactive: dose: 6.25 mg/kg/injection, schedule: Q01DX001 (ip), vehicle: saline with Tween-80 98 % of control | dose: 12.5 mg/kg/injection, schedule: Q01DX001 (ip), vehicle: saline with Tween-80 98 % of control | dose: 25.0 mg/kg/injection, schedule: Q01DX001 (ip), vehicle: saline with Tween-80 89 % of control and 91 % of control | dose: 200.0 mg/kg/injection, schedule: Q01DX001 (ip), vehicle: saline with Tween-80 90 % of control | dose: 400.0 mg/kg/injection, schedule: Q01DX001 (ip), vehicle: saline with Tween-80 87 % of control

CCC1C(=O)OC(=O)c2oc3ccc(Cl)cc3c21 (stereo not drawn)
inactive: [10] 100 % of control | [11] 102 % of control | [12] 94 % of control

N#CCc1ccc(N=Cc2ccc([N+](=O)[O-])s2)cc1
inactive: dose: 25.0 mg/kg/injection, schedule: Q04DX003 (ip), vehicle: saline with Tween-80 102 % of control | dose: 50.0 mg/kg/injection, schedule: Q04DX003 (ip), vehicle: saline with Tween-80 90 % of control

COc1ccccc1C1(O)c2ccccc2Sc2cccc(OC)c21 (stereo not drawn)
inactive: [4] 104 % of control | [5] 95 % of control | [6] 98 % of control

O=C(O)c1ccc(=O)oc1
inactive: dose: 25.0 mg/kg/injection, schedule: Q01DX009 (ip), vehicle: Klucel (hydroxypropylcellulose) (HPC) 100 % of control | dose: 50.0 mg/kg/injection, schedule: Q01DX009 (ip), vehicle: Klucel (hydroxypropylcellulose) (HPC) 87 % of control | [1] 90 % of control

COc1cc(OC)cc(C2N(Cc3ccc(OC)c(OC)c3)CCN2Cc2ccc(OC)c(OC)c2)c1
inactive: dose: 100.0 mg/kg/injection, schedule: Q01DX009 (ip), vehicle: saline with Tween-80 100 % of control | [4] 104 % of control | dose: 200.0 mg/kg/injection, schedule: Q01DX009 (ip), vehicle: saline with Tween-80 108 % of control | [5] 100 % of control | dose: 400.0 mg/kg/injection, schedule: Q01DX009 (ip), vehicle: saline with Tween-80 101 % of control | [6] 98 % of control
